# Counter-ions that a name gives are not always drawn.
# Legend:
# Alternaria solani = experiment: Antifungal activity against Alternaria solani on tomato plants (percent control relative to untreated plants); assay type: in vivo
# Botrytis cinerea = experiment: Antifungal activity against Botrytis cinerea on plants (percent control relative to untreated plants); conditions: Example 3; stored at 54° C. for two weeks or at 40° C. for eight weeks
# [1] = Relative fusaricidin A levels in stored formulations by HPLC/MS TOF; conditions: Example 4; 54° C. for two weeks or 40° C. for eight weeks; FIGS. 3 and 4
# [2] = Example 3, stored at 54° C. for two weeks or at 40° C. for eight weeks
# [3] = across the three assays of Tables 2-4, agent at 2% in 60:40 (BC:water) dilution
# [4] = agent at 2% in 70:30 (BC:water) dilution, after storage at 54° C. for two weeks
Molecule,effect of stabilizing agent on antifungal activity of Paenibacillus sp. strain NRRL B-50972 BC (Alternaria solani; [2]),effect of stabilizing agent on antifungal activity of Paenibacillus sp. strain NRRL B-50972 BC (Alternaria solani; [3]),effect of stabilizing agent on antifungal activity of Paenibacillus sp. strain NRRL B-50972 BC (Botrytis cinerea),effect of stabilizing agent on fusaricidin A in Paenibacillus sp. strain NRRL B-50972 BC [1],effect of stabilizing agent on antifungal activity of Paenibacillus sp. strain NRRL B-50972 BC (Alternaria solani; [4])
"NC(N)=O [urea, carbonic diamide (CO(NH2)2)]",robust effect in stabilizing the antifungal activity,preserved the antifungal activity,robust effect in stabilizing the antifungal activity,–,–
O=P([O-])([O-])O.[K+].[K+] [potassium phosphate (dibasic)],less than that of urea and betaine hydrochloride,–,less than that of urea and betaine hydrochloride,had less of an effect in stabilizing fusaricidin A,stabilized the antifungal activity
O=P([O-])(O)O.[K+] [potassium phosphate (monobasic)],–,–,–,–,did not
"O=C([O-])CC(O)(CC(=O)[O-])C(=O)[O-].[K+].[K+].[K+] [Potassium citrate (tribasic), potassium citrate (tribasic)]",–,–,–,–,demonstrated a stabilizing effect
N=C(N)N [guanidine hydrochloride],–,preserved the antifungal activity,–,–,–
C[N+](C)(C)CC(=O)O [betaine hydrochloride],robust effect in stabilizing the antifungal activity,–,robust effect in stabilizing the antifungal activity,–,–
glycerol ethyl oxylate,–,had little effect,–,–,–
